{"source": "paper PMC12339982", "about": "(Nature Communications, 2025)", "conditions_in_all_cases": "mean ± s.e.m., n=3", "key": {"[1]": {"target": "T1, TauT Y138A mutant (Homo sapiens, UniProt P31641, Y138A)", "T1 sequence (P31641 1-620 Y138A)": "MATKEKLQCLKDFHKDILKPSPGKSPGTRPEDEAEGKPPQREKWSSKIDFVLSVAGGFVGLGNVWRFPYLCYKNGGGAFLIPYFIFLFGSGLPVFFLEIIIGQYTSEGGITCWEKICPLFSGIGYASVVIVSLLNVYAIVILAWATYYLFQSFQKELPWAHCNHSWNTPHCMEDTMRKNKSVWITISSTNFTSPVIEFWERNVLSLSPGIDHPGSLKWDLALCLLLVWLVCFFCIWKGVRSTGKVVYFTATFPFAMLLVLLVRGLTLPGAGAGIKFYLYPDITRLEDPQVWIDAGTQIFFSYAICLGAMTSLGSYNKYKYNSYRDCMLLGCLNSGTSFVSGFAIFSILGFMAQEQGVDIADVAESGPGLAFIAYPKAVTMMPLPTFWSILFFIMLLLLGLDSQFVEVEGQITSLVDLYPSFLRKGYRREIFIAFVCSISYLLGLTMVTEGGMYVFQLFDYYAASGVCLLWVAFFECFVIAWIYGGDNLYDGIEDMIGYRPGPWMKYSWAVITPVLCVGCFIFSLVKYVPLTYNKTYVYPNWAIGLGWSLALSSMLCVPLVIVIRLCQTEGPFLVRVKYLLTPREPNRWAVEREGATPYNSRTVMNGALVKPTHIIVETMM", "assay": "MST binding, TauT Y138A"}, "[2]": {"target": "T2, TauT F300A mutant (Homo sapiens, UniProt P31641, F300A)", "T2 sequence (P31641 1-620 F300A)": "T1 sequence (P31641 1-620 Y138A) with A138Y, F300A", "assay": "MST binding, TauT F300A"}, "[3]": {"target": "T3, TauT E406A mutant (Homo sapiens, UniProt P31641, E406A)", "T3 sequence (P31641 1-620 E406A)": "T1 sequence (P31641 1-620 Y138A) with A138Y, E406A", "assay": "MST binding, TauT E406A"}, "[4]": {"target": "T4, TauT G62A mutant (Homo sapiens, UniProt P31641, G62A)", "T4 sequence (P31641 1-620 G62A)": "T1 sequence (P31641 1-620 Y138A) with G62A, A138Y", "assay": "MST binding, TauT G62A"}}, "note": "Substitutions are numbered along the chain they refer to."}
{"smiles": "NCCCC(=O)O", "note": "[GABA, γ-aminobutyric acid]", "values": [{"measurement": "Kd (MST)", "setting": "[1]", "result": "complete loss of the binding"}, {"measurement": "Kd (MST)", "setting": "[2]", "result": "complete loss of the binding"}, {"measurement": "Kd (MST)", "setting": "[3]", "result": "reduces the binding affinity of GABA slightly"}, {"measurement": "Kd (MST)", "setting": "[4]", "result": "complete loss of the binding"}]}
{"smiles": "NCCS(=O)(=O)O", "note": "[Taurine, taurine]", "values": [{"measurement": "Kd (MST)", "setting": "[1]", "result": "undetectable binding"}, {"measurement": "Kd (MST)", "setting": "[2]", "result": "reduced the taurine binding to varying extents"}, {"measurement": "Kd (MST)", "setting": "[3]", "result": "reduced the taurine binding to varying extents"}]}
{"smiles": "[H]/N=C(/N)NCC(=O)O", "note": "[GAA, guanidinoacetate]", "values": [{"measurement": "Kd (MST)", "setting": "[1]", "result": "drastic loss of GAA binding affinity"}, {"measurement": "Kd (MST)", "setting": "[2]", "result": "drastic loss of GAA binding affinity"}, {"measurement": "Kd (MST)", "setting": "[3]", "result": "only marginally weakened the binding affinity"}, {"measurement": "Kd (MST)", "setting": "[4]", "result": "drastic loss of GAA binding affinity"}]}
